The text below walks through data of patent US12162918B2, “Periostin compounds for the treatment of haematological complications” (Chemotherapeutisches Forschungsinstitut Georg-Speyer-Haus, priority 2018, dated 2024).

“Also recorded” adds a separate entry of the source.

One data set relates to F4/80+ macrophages. The data set can be described thus: Macrophage coculture assay and periostin in macrophage conditioned medium. It is filed as cell-based, mice. The source says:
For the macrophage coculture assay F4/80+ macrophages were sorted from the bone marrow of control or warfarin-treated mice, plated and cocultured with 20,000-30,000 Lin− BM cells as from the following day.

Another data set has as its system periostin knockout mice. Put plainly: Warfarin treatment of periostin knockout mice. It is filed as in vivo. From the text:
7 to 10 week old C57BL6/N (CD45.2) or SJL (CD45.1; B6.SJL-Ptprca Pepcb/BoyJ), Col1a1 2.3 kb-GFP (kind gift from D. Rowe), Nestin-GFP (Mignone et al., 2004) and periostin knockout mice (kind gift from Juerg Huelsken) were used for these experiments. NOD SCID interleukin (IL)-2 receptor γ deficient (NSG) mice were purchased from Charles River Laboratories (Sulzfeld, Germany) and bred in our facility. All animal studies were approved by the local German government (Regierungspräsidium Darmstadt) in Hessen, Germany, and by the Institutional Animal Care and Use Committee (IACUC) of Boston University.
0.5 mg/kg/d or 0.05 mg/kg/d of warfarin, resuspended in phosphate-buffered saline was administered to mice via subcutaneously implanted osmotic minipumps (ALZET minipumps, Cupertino, CA). The osmotic minipumps were changed after 14 days (if the experiment went beyond 14 days of treatment). Sham operated (skin incision and suture) mice served as controls. Warfarin treatment continued for 10-14 days. In the xenotransplantation experiments the mice were treated with warfarin via the drinking water (or normal drinking water) at a dose of 0.72 mg/100 ml for a total of 3 days a week (Pfeilschifter et al., 2011).
5-fluorouracil was intraperitoneally injected every week at a dose of 75 mg/kg for a total of 4 doses or as a one time dose of 200 mg/kg. […]

A further data set deals with periostin. The data set can be described thus: Anti-Gla coimmunoprecipitation of conditioned medium from stroma cells. It is filed as cell-based, mice. Conditions: warfarin-treated stroma cells, anti-gla antibody.
For a further data set, the system named is Lin− hematopoietic cells. The data set can be described thus: Direct effect of warfarin on Lin− hematopoietic cells in vitro. It is filed as cell-based, mice. The protocol: Concentrations of drugs for in vitro use were 2 μM for warfarin, 2 μg/ml for periostin, 5 μM for the AKT inhibitor MK-2206 (Selleck Chemicals, Houston, TX) and cilengitide (Selleck Chemicals, Houston, TX, Cat. No. #S7077) was used at 0.05 μM. Phosphate buffered saline served as the vehicle control.
To test the direct effect of warfarin on hematopoietic cells 100,000 Lin− cells were cultured in 2 μM vehicle or warfarin in the absence of stroma cells for a total of 7 days. For the in vitro rescue experiment with periostin stroma cells were grown in warfarin for 14 days, before vehicle or periostin were added.

A further data set has as its system distal femora. Put plainly: Bone histomorphometry of distal femora. It is filed as in vivo, mice. From the text: The femora were isolated and first fixed in 4% paraformaldehyde at 4C overnight and then in 70% ethanol for an additional 5 days. Fixed bones were dehydrated in graded ethanol, then embedded in methyl methacrylate without demineralization. Undecalcified 5 μm thick longitudinal sections were obtained using a microtome (RM2255, Leica Biosystem, IL, USA). The sections were stained with Goldner Trichrome and at least two consecutive sections per specimen were examined for measurements of cellular parameters. A standard histomorphometric analysis of the femur methaphysis was performed using the Osteomeasure analysis system (Osteometrics Inc, Decatur, GA, USA). Measurements were performed 200 μm below the distal growth plate. The observer was blinded to the experimental group at the time of measurement. The cellular parameters were calculated and expressed according to the standardized nomenclature (Dempster et al., 2013).

For the next data set, the system named is human CD34+ cells. Put plainly: Intrafemoral cotransplantation of human CD34+ cells with treated human stroma cells into NSG mice. The format is in vivo. The protocol: For the intrafemoral co-transplantation experiments 0.8×10^5 human CD34+ cells or 1×10^5 Lin− cells from Actin-DsRed reporter mice were mixed with 5×10^5 human or murine stroma cells which had been expanded in vitro and pretreated with vehicle or 2 μM warfarin for 14 days. The human stromal cells had been obtained via flushing of discarded bones from the orthopedic operating room, as approved of by the local ethics committee.
We assessed the complete blood count of vehicle or warfarin-treated mice using a complete blood count analyzer (Scil Vet ABC, Gurnee, IL). Peripheral blood and bone marrow samples were stained with antibodies for flow cytometry, which was performed on a BD LSR Fortessa (BD Biosciences, Heidelberg, Germany). The lineage antibody cocktail contained antibodies to B220, CD5, Ter119, F4/80 and CD11b. Engraftment of human cells in NSG mice was assessed using anti-human CD45 (BD Biosciences, San José, CA).
Stroma and hematopoietic cells (purified for CD34+) were taken from the iliac crest of healthy donors of allogeneic bone marrow.

A further data set concerns Lin− bone marrow cells. The data set can be described thus: Culture of Lin− bone marrow cells in conditioned medium from stroma cells. Conditions: conditioned medium from warfarin-treated stroma cells. It is filed as cell-based, mice. As for the experimental part:
Conditioned medium was harvested from stroma from 5 mice grown in the above medium containing vehicle or warfarin for 7 days. Consequently, 100,000 Lin− cells were grown for 2-3 days in the conditioned medium and analyzed for cell counts by flow cytometry. Where indicated, the conditioned medium was concentrated using Microsep Advance Centrifugal Devices 30K Omega (Pall Life Sciences, Portsmouth, UK).

Consider `CC(=O)CC(c1ccccc1)c1c(O)c2ccccc2oc1=O` (stereo not drawn) [warfarin], for which the “percentage of Annexin V+ apoptotic leukocytes” value in the data set with F4/80+ macrophages (untreated Lin− cells on warfarin-treated sorted F4/80+ macrophages, P=0.034) is reported as “increased”. Moreover, the “total periostin levels in conditioned medium from macrophages” value in the data set on F4/80+ macrophages (vehicle- versus warfarin-treated macrophages, coimmunoprecipitation) is reported as “no significant reduction”. Moreover, the “leukocyte counts or survival in periostin knockout mice after 5-fluorouracil” value with periostin knockout mice (repetitive doses of 75 mg/kg 5-fluorouracil) is recorded as “did not lead to lower leukocyte counts or decreased survival”. Besides, the “total leukocytes or monocytes in periostin knockout mice” value in the data set on periostin knockout mice (vs control periostin knockout mice) was “did not lead to a decrease”. Besides, the “γ-carboxylated periostin in conditioned medium” value with periostin is listed as “no γ-carboxylated periostin could be detected”. Besides, the “number of colonies from Lin− cells previously exposed in vitro” value with Lin− hematopoietic cells (2 μM warfarin or vehicle for 7 days, scored day 10) is listed as “did not yield significantly different numbers of colonies”. Also, in the data set on Lin− hematopoietic cells (Lin− cells cultured in warfarin-containing media), the “effect on phenotypical Lin− or LKS cells, annexin V+ dead cells, cycling or myeloid cells” value is on record as “no direct effect”. In the data set with distal femora (P<0.001), the “ratio of bone volume/tissue volume (BV/TV)” value is “decreased”. Moreover, in the data set with distal femora (P=0.0001), the “number of osteoblasts (N.Ob/B.Pm)” value was “significantly increased”. The “osteoblast surface (Ob.S/BS)” value in the data set with distal femora (P=0.0008) is listed as “significantly increased”. Further, in the data set with distal femora (P=0.01), the “osteoclast surface (Oc.S/BS)” value is listed as “significantly increased”. The “osteoid volume (OV/BV)” value with distal femora (P=0.046) is listed as “significantly increased”. In addition, in the data set with distal femora (distal femora, warfarin-treated vs control mice), the cancellous bone mass result was “dramatic reduction; also recorded: significant reduction”. In addition, in the data set with distal femora (mouse, in vivo), the “osteoclast differentiation or number (N.Oc/B.Pm)” value was “absence of changes”; the “trabecular number and thickness” value is given as “reduced”; the trabecular separation entry is recorded as “increased”. For the same molecule, the “huCD45+ engraftment in femora” value in the data set with human CD34+ cells (6 months after transplantation) was “only trends towards lower”. In addition, in the data set with human CD34+ cells (cotransplanted with warfarin-treated human stroma, 4 weeks, P=0.046), the “engraftment of human CD45+ leukocytes” value is on record as “decreased engraftment”. The “Lin− cell fraction” value in the data set on Lin− bone marrow cells (P=0.0001) is reported as “decrease”. Moreover, in the data set with Lin− bone marrow cells (P=0.0009), the “total number of hematopoietic cells” value is “decrease”. Moreover, the myeloid cell fraction entry with Lin− bone marrow cells (P=0.001) was “decrease”.
